# Experimental data: patent US8653304B2, “2,3-dihydro-1H-indene-2-yl urea derivative and pharmaceutical application of same” (Toray Industries, Inc., priority 2009, dated 2014)
# pIC50: −log10 of the molar value.
# Assays:
# [1] = Metabolic stability in human CYP (human liver microsomes); assay type: in vitro ADME; conditions: human liver microsomes 0.5 mg/mL, NADPH, 37° C., compound 2 μM
# Experimental: Each test compound was mixed at a concentration of 2 μM with a phosphate buffer solution containing Human liver microsomes (Xenotech) in an amount of 0.5 mg/mL. Thereafter, NADPH was added thereto, and the obtained mixture was allowed to react at 37° C. for up to 30 minutes. The reaction was terminated by adding acetonitrile, and then the resultant was centrifuged for 10 minutes at 4° C. to collect a supernatant. The supernatant was pretreated by methanol extraction method, and the concentration of the compound was analyzed by LC/MS/MS (ESI positive mode). The compound remaining rate was calculated from the obtained concentration of the compound.
# [2] = tested on: HepG2 cells; experiment: Ability to induce drug-induced phospholipidosis (HepG2, HCS Lipid TOX Green); assay type: cell-based, human; conditions: 48 hours
# Experimental: Whether an ability to induce phospholipidosis by Compound (I) was observed or not was studied. The evaluation of Compound 46b described in the Examples was carried out by a method partially modified from the method described in Experimental and Toxicologic Pathology (2007, Vol. 58, pp. 375-382).
# Each test compound and HCS Lipid TOX Green Phospholipidosis Detection Regent (Invitrogen), which is a phospholipid staining solution, were mixed with HepG2 cells, which are a cell line derived from human hepatoma, and the cells were cultured in the presence of 5% CO2 at 37° C. for 48 hours. The culture supernatant after the culturing was removed, and Hoechest 33258 (Invitrogen), which is a nucleic acid staining solution, was added, followed by allowing the resulting mixture to react in the dark at room temperature for 20 minutes. The resultant was washed with PBS solution. Then the fluorescence intensity was measured with a microplate analyzer (Fusion-α, Packard), and FLA (a relative value when taking amiodarone hydrochloride (10 μM) as 1, the amiodarone hydrochloride being a positive control substance) was calculated according to the following equations. The case where FLA was less than 1 was judged as negative, and the case where FLA was not less than 1 was judged as positive. […]
# [3] = tested on: skin swelling response in type I allergic dermatitis model; experiment: Skin swelling response in type I allergic dermatitis model; assay type: in vivo; conditions: BALB/c mouse, 20 μL of 0.5 w/v % solution applied to auricle 1 hour before induction
# Text: The action of Compound (I) on skin swelling response in mouse allergic dermatitis models was studied. As the allergic dermatitis models, models partially modified from a type I allergic dermatitis model and a type IV allergic dermatitis model described in documents (Inflamm. Res., 1998, Vol. 47, pp. 506-511 and Int. Arch. Allergy. Appl. Immunol., 1990, Vol. 92, pp. 356-360) were used.
# To each BALB/c mouse (female, 7-week old, Charles River Laboratories Japan, Inc.), mouse IgE anti-DNP antibody (0.05 mg/body, […] CORPORATION) was intravenously administered to passively sensitize the mouse. Twenty four hours after the sensitization, 20 μL of 0.38% DNFB (SIGMA) dissolved in acetone:olive oil (4:1) was applied to the auricle of the mouse to induce inflammation. From after the induction to 24 hours, the thickness of the auricle was measured with time using a Digimatic Indicator (Mitutoyo). Each test compound was dissolved in ethanol, and 20 μL of 0.5 w/v % solution was applied to the auricle at 1 hour before the induction.
# The swelling ratio of the auricle was calculated according to the following equation. […] Auricular Swelling Ratio(%)=(A−B)/B×100
# [4] = target: human p38 MAPK α (Homo sapiens (Human), UniProt Q16539); experiment: Evaluation of p38 MAPK inhibitory activity (Alpha Screen, ATF2 phosphorylation); assay type: biochemical; conditions: p38α/SAPK2a 1.5 nM, ATP 100 μM, biotinylated ATF2 30 nM
# Experimental: Using human p38 MAPK α, the p38 MAPK inhibitory activity of Compound (I) was studied by a method partially modified from the method described in Current Medicinal Chemistry (2004, No. 11, pp. 721-730).
# A solution of each test compound solution in 100% DMSO and a p38α/SAPK2a solution (Final Concentration: 1.5 nM) (Invitrogen) were added to a 384-well plate, and then the plate was incubated at room temperature in a dark place for 1 hour. Thereafter, ATP (Final Concentration: 100 μM), which is a phosphate donor, and biotinylated ATF2 (Final Concentration: 30 nM) (upstate), which is a substrate, were added, and the resulting mixture was allowed to react at room temperature in a dark place for 1 hour (the final concentration of DMSO was 0.25%). After the reaction, an anti-phosphorylated ATF2 antibody (Final Concentration: 1 nM) (Cell Signaling), anti-IgG acceptor beads (Final Concentration: 20 μg/mL) (PerkinElmer) and streptavidin donor beads (Final Concentration: 20 μg/mL) (PerkinElmer) were added, and the resultant was incubated at room temperature in a dark place for 1 hour. Using a microplate analyzer (Fusion-α, Packard) in Alpha Screen method (Amplified Luminescent Proximity Homogeneous Assay), the light emission was detected. The IC50 value of each compound was calculated by sigmoidal dose-response regression using Prism 4.02 (GraphPad Software, Inc.).
# [5] = tested on: TNFα production; experiment: Mouse LPS-induced cytokine production model; assay type: in vivo; conditions: BALB/c mouse, 50 mg/kg oral 30 minutes before LPS 1 mg/kg i.p., serum 60 minutes after LPS
# Experimental: The action of Compound (I) on the TNFα production induced by LPS administration in a mouse was studied by a method partially modified from the method described in Journal of Immunology (1992, Vol. 148, pp. 1890-1897).
# To each BALB/c mouse (male, 7 to 9-week old, Charles River Laboratories Japan, Inc.), LPS (0111:B4, SIGMA) was intraperitoneally administered at a dose of 1 mg/kg. Sixty minutes after the LPS administration, blood was collected from the abdominal vena cava under anesthesia and centrifuged for 15 minutes at 4° C. to obtain a serum. For the measurement of TNF-α in the serum, ELISA Development System (R&D Systems) was used. Each test compound was dissolved in DMSO (Final Concentration: 2%), and then the obtained solution was dissolved in a 27% aqueous solution of 2-hydroxypropyl-β-cyclodextrin (hereinafter referred to as “HP-β-CD”; Nihon Shokuhin Kako Co., Ltd.). Thirty minutes before the LPS administration, the resulting solution was orally administered at 50 mg/kg.
# Sequence of human p38 MAPK α (Q16539 whole entry): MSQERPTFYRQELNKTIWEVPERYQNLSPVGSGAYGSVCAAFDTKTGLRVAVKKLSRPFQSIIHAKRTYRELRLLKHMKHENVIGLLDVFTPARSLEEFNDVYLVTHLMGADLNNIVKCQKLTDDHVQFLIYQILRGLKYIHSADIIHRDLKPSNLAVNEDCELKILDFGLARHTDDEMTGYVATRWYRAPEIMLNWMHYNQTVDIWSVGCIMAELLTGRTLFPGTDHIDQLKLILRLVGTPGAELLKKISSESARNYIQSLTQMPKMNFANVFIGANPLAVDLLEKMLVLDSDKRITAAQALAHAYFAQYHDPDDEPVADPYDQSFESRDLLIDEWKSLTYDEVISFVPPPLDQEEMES
compound,measurement,setting,value
"COc1c(NC(=O)N[C@@H]2Cc3ccccc3[C@@H]2O)cc(C(C)(C)C)cc1[C@@H](O)C(F)(F)F [Compound 46b, 1-(5-tert-butyl-2-methoxy-3-((R)-2,2,2-trifluoro-1-hydroxyethyl)phenyl)-3-((1S,2R)-1-hydroxy-2,3-dihydro-1H-indene-2-yl)urea]",microsomal CLint at 2 μM,[1],94 µL/min/mg
same,FLA value (relative to amiodarone hydrochloride 10 μM as 1),[2]; concentration up to 10 μM,less than 1
same,phospholipidosis judgement,"[2]; up to 10 μM, FLA less than 1 = negative",negative
same,suppression ratio on immediate response (auricular swelling AUC 0-4 hours),[3],94.4%
same,suppression ratio on late response (auricular swelling AUC 5-10 hours),[3],93.1%
same,pIC50,[4],7.82
same,Suppression Ratio of TNFα production,[5],100.0%
